Assay results reported in ChEMBL document CHEMBL1833792, “Synthesis of glycoconjugate carbonic anhydrase inhibitors by ruthenium-catalysed azide-alkyne 1,3-dipolar cycloaddition” (Bioorg Med Chem Lett, 2011).

Tests used:
[1] = molecular target: Carbonic anhydrase 1 (Homo sapiens) (UniProt P00915)
Description: Inhibition of recombinant carbonic anhydrase 1 by stopped flow CO2 hydration assay

[2] = Selectivity ratio of Ki for carbonic anhydrase 1 to Ki for carbonic anhydrase 9
[3] = Selectivity ratio of Ki for carbonic anhydrase 2 to Ki for carbonic anhydrase 9
[4] = molecular target: Carbonic anhydrase 2 (Homo sapiens) (UniProt P00918)
Description: Inhibition of recombinant carbonic anhydrase 2 by stopped flow CO2 hydration assay

[5] = molecular target: Carbonic anhydrase 9 (Homo sapiens) (UniProt Q16790)
Description: Inhibition of recombinant carbonic anhydrase 9 by stopped flow CO2 hydration assay

[6] = Selectivity ratio of Ki for carbonic anhydrase 1 to Ki for carbonic anhydrase 2

Sequence of Carbonic anhydrase 1 (Homo sapiens) (P00915 2-261 limits assumed): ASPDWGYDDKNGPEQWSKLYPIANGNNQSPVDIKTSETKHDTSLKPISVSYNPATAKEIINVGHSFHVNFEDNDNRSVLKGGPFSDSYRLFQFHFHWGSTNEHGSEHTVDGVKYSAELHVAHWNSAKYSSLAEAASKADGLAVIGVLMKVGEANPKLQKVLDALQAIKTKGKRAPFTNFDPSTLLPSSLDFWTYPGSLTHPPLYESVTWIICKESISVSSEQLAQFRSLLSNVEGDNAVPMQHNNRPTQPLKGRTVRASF

| Kis [1] [nM] | Ratio Ki [2] | Ratio Ki [3] | Kis [4] [nM] | Kis [5] [nM] | Ratio Ki [6] | SMILES |
| --- | --- | --- | --- | --- | --- | --- |
| 83 | 1.7 | 0.18 | 8.9 | 48.3 |  | NS(=O)(=O)c1ccc(-c2cnnn2[C@@H]2OC[C@@H](O)[C@@H](O)[C@@H]2O)cc1 |
| 71 | 9.7 | 0.33 | 2.4 | 7.3 |  | CC(=O)OC[C@H]1O[C@@H](n2nncc2-c2ccc(S(N)(=O)=O)cc2)[C@H](OC(C)=O)[C@@H](OC(C)=O)[C@H]1OC(C)=O |
| 4.9 | 0.56 | 0.53 | 4.6 | 8.7 |  | NS(=O)(=O)c1ccc(-c2cnnn2[C@@H]2O[C@H](CO)[C@@H](O[C@H]3O[C@H](CO)[C@@H](O)[C@H](O)[C@H]3O)[C@H](O)[C@H]2O)cc1 |
| 1360 | 42.7 | 5 | 163 | 32.6 |  | CC(=O)OC[C@H]1O[C@@H](n2nncc2-c2ccc(S(N)(=O)=O)cc2)[C@H](OC(C)=O)[C@@H](OC(C)=O)[C@@H]1OC(C)=O |
| 6.7 | 0.91 | 0.85 | 6.3 | 7.4 |  | CC(=O)OC[C@H]1O[C@@H](n2nncc2-c2ccc(S(N)(=O)=O)cc2)[C@H](OC(C)=O)[C@@H](OC(C)=O)[C@@H]1O[C@H]1O[C@H](COC(C)=O)[C@@H](OC(C)=O)[C@H](OC(C)=O)[C@H]1OC(C)=O |
| 4390 | 64 | 0.04 | 2.9 | 68.3 | 1510 | CC(=O)O[C@H]1[C@H](OC(C)=O)[C@H](OC(C)=O)CO[C@H]1n1nncc1-c1ccc(S(N)(=O)=O)cc1 |
| 74 | 11 | 1.1 | 7.5 | 7 |  | NS(=O)(=O)c1ccc(-c2cnnn2[C@@H]2O[C@H](CO)[C@@H](O)[C@H](O)[C@H]2O)cc1 |
| 79 | 9.4 | 1.7 | 13.9 | 8.4 |  | NS(=O)(=O)c1ccc(-c2cnnn2[C@@H]2O[C@H](CO)[C@H](O)[C@H](O)[C@H]2O)cc1 |
| 3.5 | 0.45 | 0.4 | 3.1 | 7.7 |  | COC(=O)[C@H]1O[C@@H](n2nncc2-c2ccc(S(N)(=O)=O)cc2)[C@H](OC(C)=O)[C@@H](OC(C)=O)[C@@H]1OC(C)=O |
